# Experimental data from PMC3235747, “Bioassay-Guided Isolation of Cytotoxic Cycloartane Triterpenoid Glycosides from the Traditionally Used Medicinal Plant Leea indica” (Evidence-based Complementary and Alternative Medicine : eCAM, 2011).
# Values joined by “and” are separate entries in the source; they are usually repeats but may differ in a detail not shown here. Equal values may be shown once. Read-outs that look alike come from different tables or passages of the source.
# Tests used:
# Assay type in all cases: cell-based, human
# [1] = MTT assay, 72 h exposure, Ca Ski cells; conditions: human
# Experimental: (§1) The human cervical epidermoid carcinoma cell line (Ca Ski, ATCC number CRL-1550) and human fibroblast cell line (MRC 5, ATCC number CCL-171) were purchased from the American Type Culture Collection (ATCC, USA). Ca Ski cells were maintained in RPMI 1640 Medium (Sigma) and MRC 5 cells in EMEM (Eagle Minimum Essential Medium) (Sigma). The media were supplemented with 10% (v/v) heat-inactivated fetal bovine serum (PAA Lab, Austria), 100 μg/mL streptomycin and 100 unit/mL penicillin (PAA Lab, Austria), and 50 μg/mL amphotericin B (PAA Lab, Austria). The media were filter-sterilized using a 0.22 μm filter membrane (Minisart, Sartorius stedim). The cells were cultured in 5% CO2 incubator at 37°C in a humidified atmosphere. MTT assay was modified from Mossmann and used to evaluate the cytotoxic effects of each fraction and compounds. MTT assay is widely used to assess the viability and/or the metabolic state of the cells based on mitochondrial respiratory activity. A total of 5 × 10^3 cells were seeded into each well of 96-well plates and allowed to adhere for 24 h. After 24 h, the cells were treated with the fractions or compounds in the final concentrations ranging from 3.125 to 100 μg/mL. Each concentration was performed in triplicate well. Control cells were treated with vehicle DMSO to get the final concentration of 0.5% v/v. The cells were then incubated for 72 h. After 72 h exposure period, MTT (5 mg/mL) was added and further incubated for 4 h at 37°C. The medium was then aspirated and the crystals formed were dissolved in 150 μL DMSO. The absorbance was measured at 570 nm against the reference wavelength of 650 nm. The percentage of viability was calculated based on the formula: Viability (%) = (absorbance of treated cells/absorbance of control cells) × 100%. The IC50 (concentration that reduces cell viability to 50%) was derived from the dose-response curves.
# [2] = system: Ca Ski cervical cancer cells; assay: MTT assay, 72 h exposure, Ca Ski cells; conditions: for decrease in cell viability: Ca Ski cells, 3.125–100 μg/mL
# Experimental: as §1
# MRC 5 normal cells = assay: MTT assay, 72 h exposure, MRC 5 normal cells; conditions: for IC50: Homo sapiens, MRC5, 72 h; for fold higher IC50 against MRC 5 compared to CPT: MRC 5, relative to camptothecin
# Experimental: as §1, with “curves. MRC 5 cell line was used as a normal cell model for the calculation of selectivity index (SI). SI value was calculated by dividing the IC50 value of the MRC 5 cell line with the IC50 value of Ca Ski cell line.” for “curves.”
# Ca Ski cells [3] = assay: MTT recovery assay (72 h exposure then 72 h recovery)
# Experimental: In order to determine whether the cytotoxicity is cytostatic or cytocidal, a recovery assay was conducted whereby after the 72 h incubation (exposure period), the medium containing the compound was removed, washed with medium, and replaced with medium alone for a recovery period of 72 h followed by addition of MTT and measurement as described earlier. A sample is showing cytostatic effect when the IC50 in the recovery assay was higher than that of the exposure assay. Whereas for cytocidal effect, the IC50 obtained in the recovery assay is similar to that shown by the exposure assay.
# Ca Ski cells [4] = assay: Trypan blue exclusion (TBE) assay, viable cell count; conditions: 60 μM
# Experimental: Ca Ski cells were cultured at a density of 1 × 10^6 cells/mL in 60 mm culture dishes. After 24 h of attachment, the cells were treated without or with 60 μM of MAA for different time periods. After 6–72 h, the cells were harvested, washed with medium, and the cell pellets were resuspended in medium. After incubation in 0.4% trypan blue for 5 min, viable cells were counted using a hemocytometer. At the indicated time point straight before the cells were harvested, the cells were visualized under an inverted phase-contrast microscope (Motic) to observe the cell morphological changes upon treatment, and photographs were taken.
# [5] = system: proliferating cell nuclear antigen (PCNA) expression in Ca Ski cells; assay: Q-PCR analysis of PCNA expression; conditions: 20–100 μM for 24 h; 60 μM for 0–24 h; relative to untreated control, normalized with GAPDH
# Experimental: A total of 1 × 10^6 Ca Ski cells were seeded into 60 mm culture dishes and incubated for 24 h for attachment. Cells were then treated without or with 20-100 μM of MAA for 24 h. For time-course study, cells were treated with 60 μM MAA for 0, 3, 6, 12, and 24 h. After specific treatment period, cells were harvested and total RNA was isolated using the RNAqueous-4PCR kit (Applied Biosystem) according to the manufacturer's directions. The RNA concentration was determined using spectrophotometry. The gene expression of PCNA was assessed by one-step SYBR Green relative real-time PCR (Rotor-Gene System, Qiagen) and normalized to GAPDH reference control amplifications. The primer sequences for PCNA and GAPDH were forward [NT], reverse [NT] and forward [NT], reverse [NT], respectively. The PCR amplification reactions were carried out in a total volume of 25 μL for 30 cycles of 45 seconds at 95°C, 45 seconds at 56°C, and 120 seconds at 72°C. The mean fluorescence threshold value (CT) of each sample was obtained according to the manufacturer's guidelines and used to determine ΔCT values where by ΔCT = CT target gene (PCNA) - CT reference gene (GAPDH).
# Ca Ski cells [6] = assay: Cell cycle analysis by PI staining and flow cytometry; conditions: 60 μM
# Experimental: The cell cycle distribution was assessed using propidium iodide (PI) staining. Ca Ski cells were seeded in 60 mm culture dishes (1 × 10^6 cells) and left 24 h for attachment. The cells were then treated without or with 60 μM MAA for 12–72 h. After the designated treatment period, both adherent and floating cells were harvested and washed twice with PBS. Cell pellets were resuspended in 100 μL of PBS and fixed with absolute ethanol and stored at −20°C for 24 h. Fixed cells were washed twice with PBS, and the cell pellets were incubated in a buffer containing 50 μg/mL PI, 0.1% sodium citrate, 0.1% Triton-X-100, and 100 μg/mL RNase A for 45 min in the dark at room temperature. The percentage of cells in the sub-G1, G1, S, and G2/M-phases of the cell cycle was then analyzed using a FACS Calibur flow cytometer (Beckton Dickinson). Data were acquired and analyzed using Cell Quest software (Becton Dickinson).
# [7] = Homo sapiens, Ca-Ski, 72 h, MTT, 72 h exposure
Structure (SMILES),"selectivity ratio at 72 h ([1]; Ca Ski cervical carcinoma cells vs MRC 5 fibroblast cells, Ca Ski vs MRC 5, read-out: selectivity index (IC50 MRC 5 / IC50 Ca Ski), times more cytotoxic to Ca Ski cells compared to MRC5)",decrease in cell viability ([2]; 72 h),"IC50 [2, 7]","IC50 (MRC 5 normal cells; MTT, 72 h exposure) [mg/L]",fold higher IC50 against MRC 5 compared to CPT (MRC 5 normal cells),IC50 in the recovery assay compared with the exposure assay (Ca Ski cells [3]),effect on cell proliferation (viable cell count) (Ca Ski cells [4]; 6 h),effect on cell proliferation (viable cell count) (Ca Ski cells [4]; 12 h and 24 h),expression of PCNA [5],proportion of S-phase and G2/M-phase cells versus untreated cells (Ca Ski cells [6]; 12 and 24 h),increase of hypodiploid (sub-G1) cells (Ca Ski cells [6]; after 72 h),selectivity ratio at 72 h [1],"IC50 ([2]; MTT, 72 h exposure) [µM]","IC50 for Ca Ski cells ([2]; MTT, 72 h exposure) [mg/L]","IC50 on MRC 5 (MRC 5 normal cells; MTT, 72 h exposure) [mg/L]"
"CC(C)=CCCC(C)C1CCC2(C)C3CCC4C(C)(C(=O)O)C(OC5OCC(O)C(O)C5O)CC(O)C45CC35CCC12C [MAA, 1α, 3β-dihydroxy-cycloart-24-ene-28-oic acid 3-O-[α-L-arabinopyranoside]]",~8,20–95%,19.2 µM and 11.6 µg/mL,94.32 ± 0.75,approximately 20 fold,almost the same to the exposure assay,modestly inhibited the cell proliferation,prominent antiproliferative effect,significantly decreased,significantly higher,about 20 fold,–,–,–,–
"CC(C)=CCCC(C)C1CCC2(C)C3CCC4C(C)(C(=O)O)C(OC5OCC(O)C(O)C5O)CC(O)C45CC35CCC12C [MAX, 1α, 3β-dihydroxy-cycloart-24-ene-28-oic acid 3-O-[β-D-xylopyranoside]]",–,6–90%,–,–,~17 fold,–,–,–,–,–,–,~4,33.3,20.13 ± 0.21,79.25 ± 0.66
"CC[C@@]1(O)C(=O)OCc2c1cc1n(c2=O)Cc2cc3ccccc3nc2-1 [camptothecin, reference compound]",–,–,2.51 ± 0.33 mg/L,4.74 ± 0.33,–,–,–,–,–,–,–,–,–,–,–
